Measurements reported in patent US20240132431A1, “METHOD FOR ALKYLATING ACIDIC FUNCTIONAL GROUP” (Chugai Seiyaku Kabushiki Kaisha, priority 2021, published 2024).

Target: T1, Bcl-2 protein (Recombinant Human Bcl-2 Protein) (Homo sapiens, UniProt P10415)
T1 construct: purchased Novus NBP2-34889
Assay: Binding evaluation of mixture library compounds to Bcl-2 using AS-MS (affinity selection mass spectrometry)
Settings: AS-MS on the mixture of 1200 library compounds, ASMS Ratio(%)=(A−C)/B×100; for ASMS ratio (%) n = 1: replicate n = 1; for ASMS ratio (%) n = 2: replicate n = 2
Outline: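 Pooled library of ~1200 compounds ([…] each, final) incubated with recombinant human Bcl-2 (20 μM final) in Tris-HCl pH 7.4, NaCl, Tween-20, DTT buffer, dark, 23° C., 1 h. Bound fraction recovered by SEC spin column, organic extraction, reversed-phase LC/MS. ASMS Ratio (%) = (A−C)/B×100 versus protein-free standard and SEC blank.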

T1 sequence (P10415 whole entry): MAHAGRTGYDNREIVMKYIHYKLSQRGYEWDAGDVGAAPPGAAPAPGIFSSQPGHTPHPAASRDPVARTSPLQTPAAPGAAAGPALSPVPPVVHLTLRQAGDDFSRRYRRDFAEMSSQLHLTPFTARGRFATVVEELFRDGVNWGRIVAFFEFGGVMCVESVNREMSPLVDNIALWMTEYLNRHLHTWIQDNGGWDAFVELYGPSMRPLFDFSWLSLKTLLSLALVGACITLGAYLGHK

Row | SMILES | ASMS ratio (%) n = 1 | ASMS ratio (%) n = 2
1 | CCOc1cccc(-c2ccc(C(C)N3CCN(c4ccc(C(=O)N(C)CC56CC7CC(CC(C7)C5)C6)cc4)CC3)c(F)c2)c1 (centres unmarked) [B3A099-01, N-(1-Adamantylmethyl)-4-[4-[1-[4-(3-ethoxyphenyl)-2-fluorophenyl]ethyl]piperazin-1-yl]-N-methylbenzamide] | −2.6% | 25.2%
2 | CCOc1cncc(-c2ccc(C(C)N3CCN(c4ccc(C(=O)N(C)CC56CC7CC(CC(C7)C5)C6)cc4)CC3)c(F)c2)c1 (centres unmarked) [B3A100-01, N-(1-Adamantylmethyl)-4-[4-[1-[4-(5-ethoxypyridin-3-yl)-2-fluorophenyl]ethyl]piperazin-1-yl]-N-methylbenzamide] | −39.8% | 0.0%
3 | CCOc1cccc(-c2csc(C(=O)N3CCN(c4ccc(C(=O)N(CC)CC)nn4)CC3)c2)c1 [B4J001-01, 6-[4-[4-(3-Ethoxyphenyl)thiophene-2-carbonyl]piperazin-1-yl]-N,N-diethylpyridazine-3-carboxamide] | 0.0% | 0.0%
4 | CCOc1cncc(-c2csc(C(=O)N3CCN(c4ccc(C(=O)N(CC)CC)nn4)CC3)c2)c1 [B4J002-01, 6-[4-[4-(5-Ethoxypyridin-3-yl)thiophene-2-carbonyl]piperazin-1-yl]-N,N-diethylpyridazine-3-carboxamide] | −2.7% | 2.1%
5 | CCOc1cccc(-c2ccc(C(=O)N3CCN(c4ccc(C(=O)N(CC)CC)nn4)CC3)cc2C)c1 [B4J003-01, 6-[4-[4-(3-Ethoxyphenyl)-3-methylbenzoyl]piperazin-1-yl]-N,N-diethylpyridazine-3-carboxamide] | 0.0% | 0.0%
6 | CCOc1cncc(-c2ccc(C(=O)N3CCN(c4ccc(C(=O)N(CC)CC)nn4)CC3)cc2C)c1 [B4J004-01, 6-[4-[4-(5-Ethoxypyridin-3-yl)-3-methylbenzoyl]piperazin-1-yl]-N,N-diethylpyridazine-3-carboxamide] | −2.2% | 0.4%
7 | CCOc1cccc(-c2ccc(C(=O)N3CCN(c4ccc(C(=O)N(CC)CC)nn4)CC3)cc2F)c1 [B4J005-01, 6-[4-[4-(3-Ethoxyphenyl)-3-fluorobenzoyl]piperazin-1-yl]-N,N-diethylpyridazine-3-carboxamide] | −0.4% | 2.1%
8 | CCOc1cccc(C#Cc2ccccc2C(=O)N2CCN(c3ccc(C(=O)N(CC)CC)nn3)CC2)c1 [B4J007-01, 6-[4-[2-[2-(3-Ethoxyphenyl)ethynyl]benzoyl]piperazin-1-yl]-N,N-diethylpyridazine-3-carboxamide] | −1.0% | 1.5%
9 | CCOc1cncc(C#Cc2ccccc2C(=O)N2CCN(c3ccc(C(=O)N(CC)CC)nn3)CC2)c1 [B4J008-01, 6-[4-[2-[2-(5-Ethoxypyridin-3-yl)ethynyl]benzoyl]piperazin-1-yl]-N,N-diethylpyridazine-3-carboxamide] | 0.0% | 0.0%
10 | CCOc1cccc(C#Cc2cncc(C(=O)N3CCN(c4ccc(C(=O)N(CC)CC)nn4)CC3)c2)c1 [B4J009-01, 6-[4-[5-[2-(3-Ethoxyphenyl)ethynyl]pyridine-3-carbonyl]piperazin-1-yl]-N,N-diethylpyridazine-3-carboxamide] | 0.0% | 0.0%
11 | CCOc1cncc(C#Cc2cncc(C(=O)N3CCN(c4ccc(C(=O)N(CC)CC)nn4)CC3)c2)c1 [B4J010-01, 6-[4-[5-[2-(5-Ethoxypyridin-3-yl)ethynyl]pyridine-3-carbonyl]piperazin-1-yl]-N,N-diethylpyridazine-3-carboxamide] | 0.0% | 2.3%
12 | CCOc1cccc(-c2ccccc2CCC(=O)N2CCN(c3ccc(C(=O)N(CC)CC)nn3)CC2)c1 [B4J011-01, 6-[4-[3-[2-(3-Ethoxyphenyl)phenyl]propanoyl]piperazin-1-yl]-N,N-diethylpyridazine-3-carboxamide] | −0.1% | −0.9%
13 | CCOc1cncc(-c2ccccc2CCC(=O)N2CCN(c3ccc(C(=O)N(CC)CC)nn3)CC2)c1 [B4J012-01, 6-[4-[3-[2-(5-Ethoxypyridin-3-yl)phenyl]propanoyl]piperazin-1-yl]-N,N-diethylpyridazine-3-carboxamide] | −1.1% | −0.8%
14 | CCOc1cccc(-c2ccc(C(=O)N3CCN(c4ccc(C(=O)N(CC)CC)nn4)CC3)c3ccccc23)c1 [B4J013-01, 6-[4-[4-(3-Ethoxyphenyl)naphthalene-1-carbonyl]piperazin-1-yl]-N,N-diethylpyridazine-3-carboxamide] | 2.0% | 3.7%
15 | CCOc1cncc(-c2ccc(C(=O)N3CCN(c4ccc(C(=O)N(CC)CC)nn4)CC3)c3ccccc23)c1 [B4J014-01, 6-[4-[4-(5-Ethoxypyridin-3-yl)naphthalene-1-carbonyl]piperazin-1-yl]-N,N-diethylpyridazine-3-carboxamide] | 0.0% | −0.8%
16 | CCOc1cccc(-c2cc(C(=O)N3CCN(c4ccc(C(=O)N(CC)CC)nn4)CC3)cc(C(C)(C)C)c2)c1 [B4J015-01, 6-[4-[3-tert-Butyl-5-(3-ethoxyphenyl)benzoyl]piperazin-1-yl]-N,N-diethylpyridazine-3-carboxamide] | 0.0% | 0.0%
17 | CCOc1cncc(-c2cc(C(=O)N3CCN(c4ccc(C(=O)N(CC)CC)nn4)CC3)cc(C(C)(C)C)c2)c1 [B4J016-01, 6-[4-[3-tert-Butyl-5-(5-ethoxypyridin-3-yl)benzoyl]piperazin-1-yl]-N,N-diethylpyridazine-3-carboxamide] | 0.0% | 0.9%
18 | CCOc1cccc(-c2cc(C(=O)N3CCN(c4ccc(C(=O)N(CC)CC)nn4)CC3)cc(C(F)(F)F)c2)c1 [B4J017-01, 6-[4-[3-(3-Ethoxyphenyl)-5-(trifluoromethyl)benzoyl]piperazin-1-yl]-N,N-diethylpyridazine-3-carboxamide] | −0.3% | −0.5%
19 | CCOc1cncc(-c2cc(C(=O)N3CCN(c4ccc(C(=O)N(CC)CC)nn4)CC3)cc(C(F)(F)F)c2)c1 [B4J018-01, 6-[4-[3-(5-Ethoxypyridin-3-yl)-5-(trifluoromethyl)benzoyl]piperazin-1-yl]-N,N-diethylpyridazine-3-carboxamide] | −0.5% | −1.7%
20 | CCOc1cccc(C#Cc2cc(C(=O)N3CCN(c4ccc(C(=O)N(CC)CC)nn4)CC3)cc(C(F)(F)F)c2)c1 [B4J019-01, 6-[4-[3-[2-(3-Ethoxyphenyl)ethynyl]-5-(trifluoromethyl)benzoyl]piperazin-1-yl]-N,N-diethylpyridazine-3-carboxamide] | −0.5% | −2.1%
21 | CCOc1cncc(C#Cc2cc(C(=O)N3CCN(c4ccc(C(=O)N(CC)CC)nn4)CC3)cc(C(F)(F)F)c2)c1 [B4J020-01, 6-[4-[3-[2-(5-Ethoxypyridin-3-yl)ethynyl]-5-(trifluoromethyl)benzoyl]piperazin-1-yl]-N,N-diethylpyridazine-3-carboxamide] | 0.0% | 0.0%
22 | CCOc1cccc(-c2cnn(-c3cc(C(=O)N4CCN(c5ccc(C(=O)N(CC)CC)nn5)CC4)cc(C(F)(F)F)c3)c2)c1 [B4J021-01, 6-[4-[3-[4-(3-Ethoxyphenyl)pyrazol-1-yl]-5-(trifluoromethyl)benzoyl]piperazin-1-yl]-N,N-diethylpyridazine-3-carboxamide] | 0.0% | 0.0%
23 | CCOc1cncc(-c2cnn(-c3cc(C(=O)N4CCN(c5ccc(C(=O)N(CC)CC)nn5)CC4)cc(C(F)(F)F)c3)c2)c1 [B4J022-01, 6-[4-[3-[4-(5-Ethoxypyridin-3-yl)pyrazol-1-yl]-5-(trifluoromethyl)benzoyl]piperazin-1-yl]-N,N-diethylpyridazine-3-carboxamide] | 0.2% | −0.7%
24 | CCOc1cccc(-c2csc(C(=O)N3CCN(c4ccc(C(=O)N(CC)CC)cc4)CC3)c2)c1 [B4J023-01, 4-[4-[4-(3-Ethoxyphenyl)thiophene-2-carbonyl]piperazin-1-yl]-N,N-diethylbenzamide] | 3.5% | −3.4%
25 | CCOc1cncc(-c2csc(C(=O)N3CCN(c4ccc(C(=O)N(CC)CC)cc4)CC3)c2)c1 [B4J024-01, 4-[4-[4-(5-Ethoxypyridin-3-yl)thiophene-2-carbonyl]piperazin-1-yl]-N,N-diethylbenzamide] | −0.6% | 6.8%
26 | CCOc1cccc(-c2ccc(C(=O)N3CCN(c4ccc(C(=O)N(CC)CC)cc4)CC3)cc2C)c1 [B4J025-01, 4-[4-[4-(3-Ethoxyphenyl)-3-methylbenzoyl]piperazin-1-yl]-N,N-diethylbenzamide] | 3.6% | −0.3%
27 | CCOc1cncc(-c2ccc(C(=O)N3CCN(c4ccc(C(=O)N(CC)CC)cc4)CC3)cc2C)c1 [B4J026-01, 4-[4-[4-(5-Ethoxypyridin-3-yl)-3-methylbenzoyl]piperazin-1-yl]-N,N-diethylbenzamide] | −3.6% | −5.9%
28 | CCOc1cccc(-c2ccc(C(=O)N3CCN(c4ccc(C(=O)N(CC)CC)cc4)CC3)cc2F)c1 [B4J027-01, 4-[4-[4-(3-Ethoxyphenyl)-3-fluorobenzoyl]piperazin-1-yl]-N,N-diethylbenzamide] | −0.5% | 0.2%
